According to PubChem BioAssay AID2060892 (Molecular Pharmacology Branch, DTP, NCI, 2025):

System: HOP-62 complex spheroids with HUVEC/MSC, viability
Test: Anticancer human tumor HOP-62 cell line growth inhibition [RAS];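 note: spheroids exposed to agents for seven days before readout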;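 for viability, T/C: 100% = DMSO vehicle control viability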
Conditions: for IC50: curve of first compound; for viability, T/C: stronger effect = lower value
Procedure, shortened: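 Agents were tested in combination matrices in half-log decrements from a top concentration at or near clinical Cmax (10 microM if undetermined). Targets were multi-cell spheroids of tumour lines plus HUVEC and MSC stromal cells.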

`CC1(C)CCC(Nc2ncc(C(F)(F)F)c(-c3c[nH]c4c(P(C)(C)=O)c(C#N)ccc34)n2)CN1` (stereo unspecified) + CCn1c(-c2cccnc2C(C)OC)c2c3cc(ccc31)N1CCOC(CC(NC(=O)C(C(C)C)N(C)C(=O)C3(F)CCN(C(=O)C#CC(C)(C)N(C)C)CC3)C(=O)N3CCCC(N3)C(=O)OCC(C)(C)C2)C1 was tested, and the IC50 (second compound 0.000949 µM) was > 300 nM, the IC50 (second compound 0.003 µM) was > 300 nM and the IC50 (second compound 0.00949 µM) was > 300 nM. For the same compound, the IC50 (second compound 0.03 µM) was 202 nM, the IC50 (second compound 0.0949 µM) was 31.2 nM and the IC50 (second compound 0.3 µM) was 2.99 nM. The viability, T/C (second compound 0.000949 µM, first compound 0.000949 µM) was 108%, the viability, T/C (second compound 0.000949 µM, first compound 0.003 µM) was 94.5% and the viability, T/C (second compound 0.000949 µM, first compound 0.00949 µM) was 61.2%. The viability, T/C (second compound 0.000949 µM, first compound 0.03 µM) was 68.8%, the viability, T/C (second compound 0.000949 µM, first compound 0.0949 µM) was 80.4% and the viability, T/C (second compound 0.000949 µM, first compound 0.3 µM) was 44.4%. The viability, T/C (second compound 0.003 µM, first compound 0.000949 µM) was 105%, the viability, T/C (second compound 0.003 µM, first compound 0.003 µM) was 78.5% and the viability, T/C (second compound 0.003 µM, first compound 0.00949 µM) was 62.7%. The viability, T/C (second compound 0.003 µM, first compound 0.03 µM) was 73.5%, the viability, T/C (second compound 0.003 µM, first compound 0.0949 µM) was 62% and the viability, T/C (second compound 0.003 µM, first compound 0.3 µM) was 49.6%. For the same compound, the viability, T/C (second compound 0.00949 µM, first compound 0.000949 µM) was 97.3%, the viability, T/C (second compound 0.00949 µM, first compound 0.003 µM) was 60.6% and the viability, T/C (second compound 0.00949 µM, first compound 0.00949 µM) was 65.2%. The viability, T/C (second compound 0.00949 µM, first compound 0.03 µM) was 66.7%, the viability, T/C (second compound 0.00949 µM, first compound 0.0949 µM) was 61.6% and the viability, T/C (second compound 0.00949 µM, first compound 0.3 µM) was 52.5%. The viability, T/C (second compound 0.03 µM, first compound 0.000949 µM) was 86.8%, the viability, T/C (second compound 0.03 µM, first compound 0.003 µM) was 72.3% and the viability, T/C (second compound 0.03 µM, first compound 0.00949 µM) was 58.2%. The viability, T/C (second compound 0.03 µM, first compound 0.03 µM) was 54.4%, the viability, T/C (second compound 0.03 µM, first compound 0.0949 µM) was 42.8% and the viability, T/C (second compound 0.03 µM, first compound 0.3 µM) was 55.6%. For the same compound, the viability, T/C (second compound 0.0949 µM, first compound 0.000949 µM) was 83.3%, the viability, T/C (second compound 0.0949 µM, first compound 0.003 µM) was 58.5% and the viability, T/C (second compound 0.0949 µM, first compound 0.00949 µM) was 59.7%. For the same compound, the viability, T/C (second compound 0.0949 µM, first compound 0.03 µM) was 55.8%, the viability, T/C (second compound 0.0949 µM, first compound 0.0949 µM) was 33.1% and the viability, T/C (second compound 0.0949 µM, first compound 0.3 µM) was 55.1%. It also gave a viability, T/C (second compound 0.3 µM, first compound 0.000949 µM) of 73.3%, a viability, T/C (second compound 0.3 µM, first compound 0.003 µM) of 49.8% and a viability, T/C (second compound 0.3 µM, first compound 0.00949 µM) of 46.1%. The viability, T/C (second compound 0.3 µM, first compound 0.03 µM) was 40.6%, the viability, T/C (second compound 0.3 µM, first compound 0.0949 µM) was 40.1% and the viability, T/C (second compound 0.3 µM, first compound 0.3 µM) was 49.2%.

For `O=C(c1ccc(F)c(F)c1Nc1ccc(I)cc1F)N1CC(O)([C@@H]2CCCCN2)C1` + CCn1c(-c2cccnc2C(C)OC)c2c3cc(ccc31)N1CCOC(CC(NC(=O)C(C(C)C)N(C)C(=O)C3(F)CCN(C(=O)C#CC(C)(C)N(C)C)CC3)C(=O)N3CCCC(N3)C(=O)OCC(C)(C)C2)C1, the IC50 (second compound 0.000949 µM) was 378 nM, the IC50 (second compound 0.003 µM) was 881 nM and the IC50 (second compound 0.00949 µM) was 167 nM. For the same compound, the IC50 (second compound 0.03 µM) was 135 nM, the IC50 (second compound 0.0949 µM) was 114 nM and the IC50 (second compound 0.3 µM) was 71.4 nM. It also gave a viability, T/C (second compound 0.000949 µM, first compound 0.00316 µM) of 107%, a viability, T/C (second compound 0.000949 µM, first compound 0.01 µM) of 123% and a viability, T/C (second compound 0.000949 µM, first compound 0.0316 µM) of 82%. The viability, T/C (second compound 0.000949 µM, first compound 0.1 µM) was 87.2%, the viability, T/C (second compound 0.000949 µM, first compound 0.316 µM) was 52.4% and the viability, T/C (second compound 0.000949 µM, first compound 1 µM) was 25.6%. For the same compound, the viability, T/C (second compound 0.003 µM, first compound 0.00316 µM) was 106%, the viability, T/C (second compound 0.003 µM, first compound 0.01 µM) was 93.9% and the viability, T/C (second compound 0.003 µM, first compound 0.0316 µM) was 90.3%. It also gave a viability, T/C (second compound 0.003 µM, first compound 0.1 µM) of 110%, a viability, T/C (second compound 0.003 µM, first compound 0.316 µM) of 74.9% and a viability, T/C (second compound 0.003 µM, first compound 1 µM) of 46.9%. The viability, T/C (second compound 0.00949 µM, first compound 0.00316 µM) was 85.6%, the viability, T/C (second compound 0.00949 µM, first compound 0.01 µM) was 75.6% and the viability, T/C (second compound 0.00949 µM, first compound 0.0316 µM) was 78.3%. The viability, T/C (second compound 0.00949 µM, first compound 0.1 µM) was 60.6%, the viability, T/C (second compound 0.00949 µM, first compound 0.316 µM) was 36.7% and the viability, T/C (second compound 0.00949 µM, first compound 1 µM) was 30.9%. The viability, T/C (second compound 0.03 µM, first compound 0.00316 µM) was 88.8%, the viability, T/C (second compound 0.03 µM, first compound 0.01 µM) was 85.8% and the viability, T/C (second compound 0.03 µM, first compound 0.0316 µM) was 71.8%. The viability, T/C (second compound 0.03 µM, first compound 0.1 µM) was 60.9%, the viability, T/C (second compound 0.03 µM, first compound 0.316 µM) was 28.4% and the viability, T/C (second compound 0.03 µM, first compound 1 µM) was 32.6%. It also gave a viability, T/C (second compound 0.0949 µM, first compound 0.00316 µM) of 87.6%, a viability, T/C (second compound 0.0949 µM, first compound 0.01 µM) of 78.2% and a viability, T/C (second compound 0.0949 µM, first compound 0.0316 µM) of 72.2%. It also gave a viability, T/C (second compound 0.0949 µM, first compound 0.1 µM) of 55.8%, a viability, T/C (second compound 0.0949 µM, first compound 0.316 µM) of 27.1% and a viability, T/C (second compound 0.0949 µM, first compound 1 µM) of 26.6%. For the same compound, the viability, T/C (second compound 0.3 µM, first compound 0.00316 µM) was 82.9%, the viability, T/C (second compound 0.3 µM, first compound 0.01 µM) was 70% and the viability, T/C (second compound 0.3 µM, first compound 0.0316 µM) was 67.3%. For the same compound, the viability, T/C (second compound 0.3 µM, first compound 0.1 µM) was 42.4%, the viability, T/C (second compound 0.3 µM, first compound 0.316 µM) was 31.4% and the viability, T/C (second compound 0.3 µM, first compound 1 µM) was 26.1%.

`C=CC(=O)N1CCN(c2nc(OCC3CCCN3C)nc3c(F)c(-c4nc(N)cc(C)c4C(F)(F)F)c(Cl)cc23)C(C)C1` (stereo unspecified) + C#Cc1c(F)ccc2cc(O)cc(-c3ncc4c(N5CC6CCC(C5)N6)nc(OCC56CCCN5CC(F)C6)nc4c3F)c12 was tested, and the IC50 (second compound 0.0316 µM) was > 1000 nM, the IC50 (second compound 0.1 µM) was > 1000 nM and the IC50 (second compound 0.316 µM) was > 1000 nM. For the same compound, the IC50 (second compound 1 µM) was > 1000 nM, the IC50 (second compound 3.16 µM) was > 1000 nM and the IC50 (second compound 10 µM) was < 3.16 nM. It also gave a viability, T/C (second compound 0.0316 µM, first compound 0.00316 µM) of 79.5%, a viability, T/C (second compound 0.0316 µM, first compound 0.01 µM) of 71.2% and a viability, T/C (second compound 0.0316 µM, first compound 0.0316 µM) of 65.5%. For the same compound, the viability, T/C (second compound 0.0316 µM, first compound 0.1 µM) was 68.2%, the viability, T/C (second compound 0.0316 µM, first compound 0.316 µM) was 70.6% and the viability, T/C (second compound 0.0316 µM, first compound 1 µM) was 62.1%. The viability, T/C (second compound 0.1 µM, first compound 0.00316 µM) was 86.7%, the viability, T/C (second compound 0.1 µM, first compound 0.01 µM) was 69.3% and the viability, T/C (second compound 0.1 µM, first compound 0.0316 µM) was 63.2%. For the same compound, the viability, T/C (second compound 0.1 µM, first compound 0.1 µM) was 64.7%, the viability, T/C (second compound 0.1 µM, first compound 0.316 µM) was 69.1% and the viability, T/C (second compound 0.1 µM, first compound 1 µM) was 63%. For the same compound, the viability, T/C (second compound 0.316 µM, first compound 0.00316 µM) was 81.7%, the viability, T/C (second compound 0.316 µM, first compound 0.01 µM) was 68.9% and the viability, T/C (second compound 0.316 µM, first compound 0.0316 µM) was 62.9%. The viability, T/C (second compound 0.316 µM, first compound 0.1 µM) was 58.5%, the viability, T/C (second compound 0.316 µM, first compound 0.316 µM) was 61.1% and the viability, T/C (second compound 0.316 µM, first compound 1 µM) was 61.8%. It also gave a viability, T/C (second compound 1 µM, first compound 0.00316 µM) of 90%, a viability, T/C (second compound 1 µM, first compound 0.01 µM) of 73.5% and a viability, T/C (second compound 1 µM, first compound 0.0316 µM) of 63.1%. The viability, T/C (second compound 1 µM, first compound 0.1 µM) was 57.9%, the viability, T/C (second compound 1 µM, first compound 0.316 µM) was 59.2% and the viability, T/C (second compound 1 µM, first compound 1 µM) was 58.4%. For the same compound, the viability, T/C (second compound 3.16 µM, first compound 0.00316 µM) was 72.7%, the viability, T/C (second compound 3.16 µM, first compound 0.01 µM) was 70.1% and the viability, T/C (second compound 3.16 µM, first compound 0.0316 µM) was 57.4%. For the same compound, the viability, T/C (second compound 3.16 µM, first compound 0.1 µM) was 61.1%, the viability, T/C (second compound 3.16 µM, first compound 0.316 µM) was 53.9% and the viability, T/C (second compound 3.16 µM, first compound 1 µM) was 50%. The viability, T/C (second compound 10 µM, first compound 0.00316 µM) was 48%, the viability, T/C (second compound 10 µM, first compound 0.01 µM) was 49.5% and the viability, T/C (second compound 10 µM, first compound 0.0316 µM) was 43.4%. The viability, T/C (second compound 10 µM, first compound 0.1 µM) was 48.4%, the viability, T/C (second compound 10 µM, first compound 0.316 µM) was 43.7% and the viability, T/C (second compound 10 µM, first compound 1 µM) was 37%.
